From the NIST ThermoML archive (doi:10.1021/je4001894) come the findings set out here.

Numbers after ± are expanded uncertainties.

For data set [1] the following is noted: 101.33 kPa, Liquid, Vibrating tube method.
Data set [2] is described as follows: activity coefficient (dimensionless); of the first substance listed, at infinite dilution; xn = mol fraction of the nth substance listed. The conditions noted are these: 101 kPa, Liquid, Chromatography, x1 = 0.

A word on the mass density: it is the mass of a sample divided by its volume. Turning to `CCCC[N+]1(C)CCCC1.O=S(=O)([N-]S(=O)(=O)C(F)(F)F)C(F)(F)F`, the mass density in data set [1] (293.15 K) is listed as 1397.4 ± 0.6 kg/m3; in data set [1] (303.15 K) it was 1389.2 ± 0.6 kg/m3; in data set [1] (313.15 K) it was 1381.1 ± 0.6 kg/m3; in data set [1] (323.15 K), 1372.7 ± 0.6 kg/m3; in data set [1] (333.15 K), 1364.1 ± 0.6 kg/m3.
Regarding `CCC[N+]1(C)CCCC1.O=S(=O)([N-]S(=O)(=O)C(F)(F)F)C(F)(F)F`, the mass density came out at 1430.1 ± 0.6 kg/m3 in data set [1] (293.15 K); 1421.8 ± 0.6 kg/m3 in data set [1] (303.15 K); 1412.8 ± 0.6 kg/m3 in data set [1] (313.15 K); 1403.8 ± 0.6 kg/m3 in data set [1] (323.15 K); 1394.4 ± 0.6 kg/m3 in data set [1] (333.15 K).
Take `CCN(CC)CC` [triethylamine] + CCC[N+]1(C)CCCC1.O=S(=O)([N-]S(=O)(=O)C(F)(F)F)C(F)(F)F: the activity coefficient in data set [2] (323.15 K) was 8.98 ± 0.61; in data set [2] (333.15 K), 8.1 ± 0.55; in data set [2] (343.15 K), 7.19 ± 0.49.
The matching figures for `CCCCCCCCCCC` [undecane] + CCCC[N+]1(C)CCCC1.O=S(=O)([N-]S(=O)(=O)C(F)(F)F)C(F)(F)F: 76.9 ± 5.3, 68.2 ± 4.7 and 61.1 ± 4.2.
Take `CCCCCCCCCCC` [undecane] + CCC[N+]1(C)CCCC1.O=S(=O)([N-]S(=O)(=O)C(F)(F)F)C(F)(F)F: the figures for the activity coefficient in data set [2] (323.15 K), in data set [2] (333.15 K) and in data set [2] (343.15 K) were 108 ± 7.4, 92.8 ± 6.4 and 85.1 ± 5.8, respectively.
